According to patent US4556673A, “Use of phthalyltaurine sulfonamide derivatives in treating epilepsy and arrythmia” (priority 1980, dated 1985):
Read-outs that look alike come from different tables or passages of the source.

Key:
[1] = test system: convulsions induced by electrical stimulation (maximal electroshock); assay: Maximal electroshock test (MES), 50 mA electrical stimulation; assay type: in vivo, mice; conditions: Mus musculus, ip, read-out: Anticonvulsive activity ED50, MES
Source text: (§1) The anticonvulsive effect of the compounds was studied on three types of experimental epilepsy. Convulsions were induced in mice by subcutaneous administration of pentylene tetrazole or strychnine, or by electrical stimulation with a 50 mA current (E. A. Swinyard, Assay of antiepileptic drug activity in experimental animals: Standard tests in International Enocyclopedica of Pharmacology and Therapeutics, Section 19, vol 1: Anticonvulsant Drugs, 1972). […] No sedative effect could be observed.
MES = maximal electroshock test

[2] = test system: convulsions induced by pentylene tetrazole; assay: Metrazole (pentylene tetrazole) convulsant threshold test (MET); assay type: in vivo, mice; conditions: Mus musculus, ip, read-out: Anticonvulsive activity ED50, MET
Source text: as §1
MET = metrazole (= pentylene tetrazole) convulsant threshold test.

[3] = test system: convulsions induced by strychnine; assay: Strychnine convulsant threshold test (STR); assay type: in vivo, mice; conditions: Mus musculus, ip, read-out: Anticonvulsive activity ED50, STR
Source text: as §1
STR = strychnine convulsant threshold test

bacteria = conditions: cited from earlier work
[4] = test system: arrhythmia in guinea-pigs after infusion of ouabain; assay: Ouabain-induced arrhythmia in guinea-pigs; conditions: for Ouabain dose ± SE, inducing arrhythmia / Ouabain dose ± SE, inducing asystole: ouabain 20 μg/kg/min.
Source text: Arrhythmia was induced by K^+ deficiency and by aconitine. […] Besides the above-described in vitro tests, an in vivo method was used: the antiarrhythmic effect of the compounds was studied in quineapigs with ouabain-induced arrhythmia.

[5] = injectable forms; cited from earlier work
[6] = mice, intraperitoneal; cited from earlier work
experimental epilepsy = conditions: several types of experimental epilepsy; cited from earlier work
epileptic patients = conditions: cited from earlier work
[7] = test system: hexobarbiturate-induced sleep in mice; assay: Hexobarbiturate-induced sleep; assay type: in vivo
[8] = test system: convulsions induced by pentylene tetrazole, strychnine or electrical stimulation; assay: Anticonvulsive effect in three types of experimental epilepsy; assay type: in vivo, mice; conditions: in words
Source text: as §1

arrhythmia = assay: Antiarrhythmic effect (general statement); conditions: in words
Source text: Isolated perfused rat heart, prepared after the method of Langendorff, and isolated spontaneously beating rat atria (W. C. Holland & J. H. Burn, J. Brit. Med., vol 1, 1031, 1958) were used for studies of the antiarrhythmic effect of the compounds. Arrhythmia was induced by K^+ deficiency and by aconitine. […] Besides the above-described in vitro tests, an in vivo method was used: the antiarrhythmic effect of the compounds was studied in quineapigs with ouabain-induced arrhythmia.

[9] = mice, maximal electroshock test
[10] = mice, metrazole convulsant threshold test
[11] = O-value (initial), group dosed 12 mg/kg iv
[12] = O-value (initial), group dosed 3 mg/kg iv
[13] = O-value (initial), group dosed 6 mg/kg iv

Compound | ED50 [1, 9] [mg/kg] | ED50 [2, 10] [mg/kg] | ED50 [3] [mg/kg] | HR ± SE, 5 min. after adm. of test compound ([4]; 3 mg/kg iv) [beats/min.] | Ouabain dose ± SE, inducing arrhythmia ([4]; 3 mg/kg iv) [mg/kg] | Ouabain dose ± SE, inducing asystole ([4]; 3 mg/kg iv) [mg/kg] | HR ± SE, 5 min. after adm. of test compound ([4]; 6 mg/kg iv) [beats/min.] | Ouabain dose ± SE, inducing arrhythmia ([4]; 6 mg/kg iv) [mg/kg] | Ouabain dose ± SE, inducing asystole ([4]; 6 mg/kg iv) [mg/kg] | HR ± SE, O-value [4, 12] [beats/min.] | HR ± SE, O-value [4, 13] [beats/min.] | also measured
CN(C)S(=O)(=O)CCN1C(=O)c2ccccc2C1=O [2-Phthalimidoethanesulfone dimethylamide, 2-phthalimidoethanesulfone dimethylamide] | 113 | 231 | 234 | – | – | – | – | – | – | – | – | Antibacterial properties (bacteria): did not come up to expectations
NS(=O)(=O)CCN1C(=O)c2ccccc2C1=O [2-Phthalimidoethanesulfone amide, 2-phthalimidoethane sulfonamide] | 122 | > 300 | 93 | – | – | – | – | – | – | – | – | HR ± SE, 5 min. after adm. of test compound ([4]; 12 mg/kg iv): 330 beats/min.; Ouabain dose ± SE, inducing arrhythmia ([4]; 12 mg/kg iv): 0.17 mg/kg; Ouabain dose ± SE, inducing asystole ([4]; 12 mg/kg iv): 0.22 mg/kg; HR ± SE, O-value [4, 11]: 333 beats/min.; Antibacterial properties (bacteria): did not come up to expectations
CCNS(=O)(=O)CCN1C(=O)c2ccccc2C1=O [2-Phthalimidoethanesulfone ethylamide] | 103 | 138 | 126 | 332 ± 16 | 0.175 ± 0.005 | 0.318 ± 0.022 | 270 | 0.15 | 0.36 | 332 ± 22 | 285 | –
CC(C)NS(=O)(=O)CCN1C(=O)c2ccccc2C1=O [2-Phthalimidoethanesulfone isopropylamide] | – | – | 227 | 312 ± 27 | 0.197 ± 0.032 | 0.297 ± 0.027 | 291 | 0.155 | 0.29 | 321 ± 39 | 303 | ED50 [1]: 130 mg/kg; ED50 [2]: > 300 mg/kg
CC(=O)NCCS(=O)(=O)O [N-acetyl taurine] | – | – | – | – | – | – | – | – | – | – | – | Penetration of the blood-brain barrier [5]: penetrate the bloodbrain barrier
CC(C)NCC(O)COc1cccc2ccccc12 (stereo not drawn) [Propranolol, reference compound] | – | – | – | – | 0.295 ± 0.035 | 0.435 ± 0.024 | – | 0.269 ± 0.039 | 0.418 ± 0.034 | – | – | Ouabain dose ± SE, inducing arrhythmia ([4]; 1 mg/kg iv): 0.24 ± 0.005 mg/kg; Ouabain dose ± SE, inducing asystole ([4]; 1 mg/kg iv): 0.363 ± 0.011 mg/kg; HR ± SE, O-value ([4]; guinea pig, in vivo, iv, 1 mg/kg): 280 ± 17 beats/min.; HR ± SE, O-value ([4]; guinea pig, in vivo, iv, 3 mg/kg): 293 ± 17 beats/min.; HR ± SE, O-value ([4]; guinea pig, in vivo, iv, 6 mg/kg): 301 ± 10 beats/min.; Bradycardia ([4]; guinea-pigs): caused bradycardia
CCCNS(=O)(=O)CCN1C(=O)c2ccccc2C1=O [2-Phthalimidoethanesulfone n-propylamide] | 252 | > 300 | > 300 | 294 ± 45 | 0.16 ± 0.01 | 0.322 ± 0.062 | – | – | – | 286 ± 55 | – | HR ± SE, 5 min. after adm. of test compound ([4]; 2 mg/kg iv): 243 ± 18 beats/min.; Ouabain dose ± SE, inducing arrhythmia ([4]; 2 mg/kg iv): 0.165 ± 0.01 mg/kg; Ouabain dose ± SE, inducing asystole ([4]; 2 mg/kg iv): 0.272 ± 0.027 mg/kg; HR ± SE, O-value ([4]; O-value (initial), group dosed 2 mg/kg iv): 229 ± 34 beats/min.
O=C1c2ccccc2C(=O)N1CCS(=O)(=O)N1CCCC1 [2-Phthalimidoethanesulfone pyrrolidide] | > 300 | > 300 | – | – | – | – | – | – | – | – | – | –
CNS(=O)(=O)CCN1C(=O)c2ccccc2C1=O [2-Phthalimidoethanesulfone methylamide] | 112 | 170 | 189 | – | – | – | 255 ± 51 | 0.188 ± 0.017 | 0.345 ± 0.02 | – | 261 ± 45 | HR ± SE, 5 min. after adm. of test compound ([4]; 12 mg/kg iv): 399 ± 22 beats/min.; Ouabain dose ± SE, inducing arrhythmia ([4]; 12 mg/kg iv): 0.195 ± 0.015 mg/kg; Ouabain dose ± SE, inducing asystole ([4]; 12 mg/kg iv): 0.265 ± 0.05 mg/kg; HR ± SE, O-value [4, 11]: 369 ± 30 beats/min.
CC(C)(C)C(=O)NCCS(=O)(=O)O [N-pivaloyl taurine] | – | – | – | – | – | – | – | – | – | – | – | Penetration of the blood-brain barrier [6]: penetrated the blood-brain barrier
CCCCNS(=O)(=O)CCN1C(=O)c2ccccc2C1=O [2-Phthalimidoethanesulfone n-butylamide] | 219 | > 300 | – | 213 | 0.175 | 0.34 | 256 ± 43 | 0.2 ± 0 | 0.382 ± 0.037 | 210 | 256 ± 19 | –
CC(C)(C)NS(=O)(=O)CCN1C(=O)c2ccccc2C1=O [2-Phthalimidoethanesulfone tert-butylamide] | > 300 | > 300 | – | – | – | – | – | – | – | – | – | –
NCCS(=O)(=O)O [Taurine, 2-aminoethanesulfonic acid] | – | – | – | – | – | – | – | – | – | – | – | Direct central anticonvulsive effect (experimental epilepsy): direct central anticonvulsive effect; Antiepileptic action (epileptic patients): antiepileptic action
CC(=O)NS(=O)(=O)CCN1C(=O)c2ccccc2C1=O [2-Phthalimidoethanesulfonyl acetamide, 2-phthalimidoethanesulfonyl acetamide] | > 300 | > 300 | – | 259 ± 10 | 0.215 ± 0.024 | 0.355 ± 0.02 | 334 ± 11 | 0.212 ± 0.016 | 0.345 ± 0.026 | 260 ± 9 | 329 ± 15 | HR ± SE, 5 min. after adm. of test compound ([4]; 1 mg/kg iv): 316 ± 10 beats/min.; Ouabain dose ± SE, inducing arrhythmia ([4]; 1 mg/kg iv): 0.185 ± 0.005 mg/kg; Ouabain dose ± SE, inducing asystole ([4]; 1 mg/kg iv): 0.307 ± 0.002 mg/kg; HR ± SE, 5 min. after adm. of test compound ([4]; 12 mg/kg iv): 349 ± 19 beats/min.; Ouabain dose ± SE, inducing arrhythmia ([4]; 12 mg/kg iv): 0.21 ± 0.016 mg/kg; Ouabain dose ± SE, inducing asystole ([4]; 12 mg/kg iv): 0.36 ± 0.013 mg/kg; HR ± SE, O-value ([4]; O-value (initial), group dosed 1 mg/kg iv): 292 ± 1 beats/min.; HR ± SE, O-value [4, 11]: 329 ± 19 beats/min.; Prolongation of hexobarbiturate-induced sleep [7]: did not prolong the time of sleep; Anticonvulsive effect [8]: no anticonvulsive effect; Antiarrhythmic effect (arrhythmia): had an antiarrhythmic
